Assay results taken from ChEMBL document CHEMBL1201862, “PubChem BioAssay data set” (2004).
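Five compound concentrations were applied to cells in 96-well plates for 48 hours; endpoints were derived by simple linear interpolation of the resulting dose-response curve. At the GI50, growth is halved.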 Calls of active or inactive are those of the source. No stated cut-off is given here; in the data, active = GI50 up to about 1.1 µM and inactive = higher.

Tests used:
Assay in all cases: NCI tumour cell line growth inhibition, 48 h
CAKI-1 = tested on: CAKI-1
COLO 205 = tested on: COLO 205
EKVX = tested on: EKVX
HOP-92 = tested on: HOP-92
Hs-578T = tested on: Hs-578T
IGROV-1 = tested on: IGROV-1
KM12 = tested on: KM12
LOX IMVI = tested on: LOX IMVI
NCI-H226 = tested on: NCI-H226
NCI/ADR-RES = tested on: NCI/ADR-RES
OVCAR-3 = tested on: OVCAR-3
SF-539 = tested on: SF-539
SK-MEL-5 = tested on: SK-MEL-5
U-251 = tested on: U-251
UACC-257 = tested on: UACC-257
UO-31 = tested on: UO-31
Malme-3M = tested on: Malme-3M
OVCAR-4 = tested on: OVCAR-4
SNB-19 = tested on: SNB-19
BT-549 = tested on: BT-549

Measured: GI50

COCOc1ccc(C(=O)Oc2cccc3c2OC(C)(C)O3)c(OCOC)c1
inactive: CAKI-1 > 100 µM | COLO 205 > 100 µM | EKVX > 100 µM | HOP-92 > 100 µM | Hs-578T 31.3 µM | IGROV-1 > 100 µM | KM12 11.9 µM | LOX IMVI 35.7 µM | NCI-H226 > 100 µM | NCI/ADR-RES > 100 µM | OVCAR-3 > 100 µM | SF-539 37.7 µM | SK-MEL-5 54.8 µM | U-251 27.9 µM | UACC-257 > 100 µM | UO-31 71.1 µM

COC1(CC[C@@H](C)COC2OC(CO)C(O)C(O)C2O)OC2C[C@H]3[C@@H]4CC[C@H]5C[C@@H](OC6OC(CO)C(OC7OC(CO)C(O)C(O)C7O)C(O)C6OC6OC(C)C(O)C(O)C6O)[C@H](O)C[C@]5(C)[C@H]4CC[C@]3(C)C2[C@@H]1C (stereo not given in full)
inactive: CAKI-1 2.01 µM | COLO 205 2.57 µM | EKVX 2.14 µM | HOP-92 4.24 µM | Hs-578T 2.52 µM | IGROV-1 1.74 µM | KM12 2.12 µM | LOX IMVI 1.79 µM | Malme-3M 1.85 µM | NCI-H226 2.22 µM | OVCAR-3 1.82 µM | OVCAR-4 1.97 µM | SF-539 1.83 µM | SK-MEL-5 1.79 µM | SNB-19 1.87 µM | U-251 1.87 µM | UACC-257 1.97 µM | UO-31 1.79 µM

O=[N+]([O-])c1ccc2nc3ccscc-3c2c1
inactive: CAKI-1 13 µM | COLO 205 18.5 µM | EKVX 9.93 µM | HOP-92 10.8 µM | IGROV-1 27.4 µM | KM12 7.52 µM | LOX IMVI 18.7 µM | Malme-3M 29 µM | NCI-H226 20.9 µM | OVCAR-3 7.94 µM | OVCAR-4 15.5 µM | SF-539 8.49 µM | SK-MEL-5 7.31 µM | SNB-19 6.98 µM | U-251 7.76 µM | UACC-257 14.3 µM | UO-31 8.13 µM

O=C1/C(=C/c2cccc([N+](=O)[O-])c2)COc2ccccc21
inactive: CAKI-1 5.33 µM | COLO 205 > 42.2 µM | EKVX 25.6 µM | HOP-92 19.1 µM | IGROV-1 7.85 µM | KM12 2.5 µM | LOX IMVI 1.8 µM | Malme-3M 16.1 µM | NCI-H226 3.86 µM | OVCAR-3 2.79 µM | OVCAR-4 2.49 µM | SF-539 4.42 µM | SK-MEL-5 2.32 µM | SNB-19 2.82 µM | U-251 2.62 µM | UACC-257 7.69 µM | UO-31 15.2 µM

C#CC(O)/C=C/C(O)CCCC(O)CC#CC(O)C#CCCCCC(O)/C=C/CCCC(=O)CCCCCCCCCCCCCCCC(O)C(O)C#CC(=O)O (stereo not given)
inactive: CAKI-1 > 25 µM | COLO 205 > 25 µM | EKVX > 25 µM | HOP-92 > 25 µM | Hs-578T > 25 µM | IGROV-1 8.55 µM | KM12 > 25 µM | LOX IMVI 5.37 µM | Malme-3M > 25 µM | NCI-H226 > 25 µM | NCI/ADR-RES > 25 µM | OVCAR-4 > 25 µM | SK-MEL-5 > 25 µM | SNB-19 > 25 µM | U-251 > 25 µM | UACC-257 > 25 µM | UO-31 > 25 µM

COCCOC(=O)C1=C(O)c2ccccc2S(=O)(=O)N1C
inactive: CAKI-1 > 100 µM | COLO 205 > 100 µM | EKVX > 100 µM | HOP-92 > 100 µM | Hs-578T > 100 µM | IGROV-1 > 100 µM | KM12 > 100 µM | LOX IMVI > 100 µM | Malme-3M > 100 µM | NCI-H226 > 100 µM | NCI/ADR-RES > 100 µM | OVCAR-3 > 100 µM | OVCAR-4 > 100 µM | SF-539 > 100 µM | SK-MEL-5 > 100 µM | SNB-19 > 100 µM | U-251 > 100 µM | UACC-257 > 100 µM | UO-31 > 100 µM

CCOC(=O)C1=C(Nc2ccc(NC3=C(C(=O)OCC)C(=O)CS3)cc2)SCC1=O
inactive: CAKI-1 14.8 µM | COLO 205 17.7 µM | EKVX 35.2 µM | HOP-92 24.6 µM | IGROV-1 24.3 µM | KM12 21.5 µM | LOX IMVI 14.2 µM | Malme-3M 18.6 µM | NCI-H226 19.8 µM | OVCAR-3 36.7 µM | OVCAR-4 30.9 µM | SF-539 20.1 µM | SK-MEL-5 19.1 µM | SNB-19 32.2 µM | U-251 25.2 µM | UACC-257 22.7 µM | UO-31 17.5 µM

C=CCO[C@]1(CC=C)C(=O)C(=O)OC1C1COC(C)(C)O1 (stereo not given in full)
inactive: CAKI-1 27.1 µM | COLO 205 20.5 µM | EKVX > 100 µM | HOP-92 22.3 µM | Hs-578T 74 µM | IGROV-1 > 100 µM | KM12 18.8 µM | LOX IMVI 16.9 µM | Malme-3M 17.3 µM | NCI-H226 > 100 µM | NCI/ADR-RES 37.4 µM | OVCAR-3 45.7 µM | SF-539 > 100 µM | SK-MEL-5 36.1 µM | SNB-19 > 100 µM | U-251 72.3 µM | UACC-257 30 µM | UO-31 84.5 µM

Sc1nnc(-c2ccccc2Nc2ccccc2-c2nnc(S)n2-c2ccccc2)n1-c1ccccc1
inactive: BT-549 28.1 µM | CAKI-1 31.3 µM | COLO 205 34.8 µM | EKVX 32.4 µM | HOP-92 17.8 µM | IGROV-1 16.4 µM | KM12 51.6 µM | LOX IMVI 42.5 µM | NCI-H226 29.7 µM | NCI/ADR-RES 84.1 µM | OVCAR-3 56.6 µM | OVCAR-4 40.4 µM | SF-539 28.8 µM | SK-MEL-5 23.7 µM | SNB-19 46.9 µM | U-251 30.1 µM | UACC-257 44.3 µM | UO-31 44.6 µM

C=CC[C@@H]1C(=O)[C@@]2(O[Si](C(C)C)(C(C)C)C(C)C)CC[C@@H]1C[C@H]2NC(=O)OCC(Cl)(Cl)Cl
inactive: CAKI-1 59.2 µM | COLO 205 > 100 µM | Hs-578T > 100 µM | KM12 > 100 µM | LOX IMVI 41.5 µM | NCI-H226 > 100 µM | NCI/ADR-RES > 100 µM | OVCAR-3 90.8 µM | OVCAR-4 > 100 µM | SK-MEL-5 > 100 µM | SNB-19 > 100 µM | U-251 > 100 µM | UACC-257 43.8 µM | UO-31 56.5 µM

CO[C@]12CC(=O)C3(C(C[C@H]4CC5CCC6=CC(=O)CC[C@]6(OC(C)=O)C5C[C@@]43C)C1)C1C[C@H]3[C@@H]4CCC5=CC(=O)CC[C@]5(OC(C)=O)[C@H]4CC[C@]3(C)C12 (stereo not given in full)
inactive: CAKI-1 > 100 µM | COLO 205 19.7 µM | EKVX > 100 µM | HOP-92 > 100 µM | Hs-578T > 100 µM | IGROV-1 > 100 µM | LOX IMVI > 100 µM | Malme-3M > 100 µM | NCI/ADR-RES > 100 µM | OVCAR-3 > 100 µM | OVCAR-4 > 100 µM | SF-539 > 100 µM | SK-MEL-5 39.4 µM | SNB-19 > 100 µM | U-251 > 100 µM | UACC-257 > 100 µM | UO-31 > 100 µM

CC(C)(O)/C=C\P(C)(=O)c1ccccc1 (stereo not given)
inactive: CAKI-1 > 100 µM | COLO 205 > 100 µM | EKVX > 100 µM | HOP-92 > 100 µM | Hs-578T > 100 µM | IGROV-1 > 100 µM | KM12 > 100 µM | LOX IMVI > 100 µM | Malme-3M > 100 µM | NCI-H226 > 100 µM | NCI/ADR-RES > 100 µM | OVCAR-3 > 100 µM | OVCAR-4 > 100 µM | SF-539 > 100 µM | SK-MEL-5 > 100 µM | SNB-19 > 100 µM | U-251 > 100 µM | UACC-257 > 100 µM

CSc1nncc(-c2cc3c(c(SC)n2)CCCC3)n1
inactive: BT-549 > 100 µM | CAKI-1 61.5 µM | COLO 205 > 100 µM | EKVX > 100 µM | KM12 > 100 µM | NCI-H226 > 100 µM | NCI/ADR-RES > 100 µM | OVCAR-3 > 100 µM | OVCAR-4 > 100 µM | SF-539 > 100 µM | SK-MEL-5 > 100 µM | SNB-19 > 100 µM | U-251 > 100 µM | UACC-257 > 100 µM | UO-31 > 100 µM

CN(C)CC(C)(C)C(=O)/C=C/c1ccccc1
inactive: CAKI-1 15.8 µM | COLO 205 13.3 µM | EKVX 17.6 µM | HOP-92 8.41 µM | IGROV-1 12.9 µM | KM12 14.1 µM | LOX IMVI 11.2 µM | Malme-3M 11.6 µM | NCI-H226 13.9 µM | OVCAR-3 17.5 µM | OVCAR-4 14.2 µM | SF-539 16.6 µM | SK-MEL-5 16.2 µM | SNB-19 15.8 µM | U-251 16.3 µM | UACC-257 12.8 µM | UO-31 11 µM

NC1(C(=O)O)CCC(C(=O)O)CC1 (stereo not given)
inactive: CAKI-1 > 100 µM | COLO 205 > 100 µM | EKVX > 100 µM | HOP-92 > 100 µM | IGROV-1 > 100 µM | KM12 > 100 µM | LOX IMVI > 100 µM | Malme-3M > 100 µM | NCI-H226 > 100 µM | OVCAR-3 > 100 µM | OVCAR-4 > 100 µM | SF-539 > 100 µM | SK-MEL-5 > 100 µM | SNB-19 > 100 µM | U-251 > 100 µM | UACC-257 > 100 µM | UO-31 > 100 µM
